Laboratory results published in ChEMBL document CHEMBL1770138, “Synthesis and SAR of pyrimidine-based, non-nucleotide P2Y14 receptor antagonists” (Bioorg Med Chem Lett, 2011).

How the values were obtained:
[1] = Drug uptake in plasma of C57B6 mouse after 24 hrs; assay type: ADME; details: read-out: Drug uptake
in vivo [2] = details: C57B6, mouse, po, 50 mg/kg
in vivo [3] = details: C57B6, mouse, po, 50 mg/kg; remark: listed apart in the source
in vivo [4] = details: C57B6, mouse, iv, 5 mg/kg
in vivo [5] = details: C57B6, mouse, iv, 5 mg/kg; remark: listed apart in the source
in vivo [6] = details: C57B6, mouse

CCc1cccc(NC(=O)N2CCc3nc(-c4ccc5c(c4)OCO5)nc(-c4ccccc4C)c3C2)c1
concentration at 24 h [1]: 0.4 µM | bioavailability (in vivo [2]): 134% | Cmax (in vivo [3]): 2.4 µM | clearance (in vivo [4]): 2.88 L/h/kg | Vd (in vivo [5]): 19 L/kg | half-life (in vivo [6]): 11 h
